The test system of data set [1] is HGPS cells. Nature of the data set: SA-β-gal staining senescence assay in HGPS cells. The format is cell-based, human. The text has this:
Fig. S3. Chemical screening with JH4 derivatives (a total of 53 chemicals except JH010 and SLC -D011 were used). A. Summarized tables for effects of JH4 derivatives. ‘+’ means s t re ngt h of binding affinity or expression level after treatment of chemicals. Middle columns of tables show binding affinity between progerin and lamin A. Third columns of tables show level of progerin expression. […]
severe cytotoxicity (cell death or none). B , C, and D. Examples of screening based on pull-down assay. All chemicals were tested using GST pull-down assay. […]
inhibition activity than JH4. E. Generation of J H4 derivatives. To prevent rapid digestion in vivo, side chain was replaced by amide bond (J H010) or ether bond (SLC-D011).
H3K9me3 levels after treatment with J H010 and D011 in HGPS cells (n = 3 independent experiments; two- […]
with J H4, JH010, and SLC-D011 in HGPS cells (n = 3 independent experiments; two- tailed Student’s t- […]
fibroblasts from normal person and patients with HGPS (n = 3 independent experiments; two- tailed Student’s t -test), **p < 0.001, *p< 0.05. I. Transcriptional levels of progerin are not affected by treatment with SLC-D011. Total RNA was extracted after treatment with SLC-D011 for 7 days. The PCR products correspond to wild- type prelamin A and progerin transcripts. […]

Data set [2] can be described thus: Liver microsomal stability, human. The settings on record: liver microsomes, read-out: Liver microsomal stability (% remaining during 30min). Type of data set: in vitro ADME. As for the experimental part:
(§1) At pre-set time-points, blood concentration of JH4 was determined by LC-MS/MS analysis[22],[23]. Other chemicals were also tested using similar protocol. In vitro ADME studies (plasma protein binding, CYP inhibition, microsomal stability, plasma stability, and hERG inhibition) were performed by New Drug Development Center (Daegu, Korea) using standard protocols[24],[25].
For orientation: Liver microsomes are vesicles of endoplasmic reticulum, rich in cytochrome P450 enzymes.

Data set [3] deals with CYP3A4 (Homo sapiens, UniProt P08684). Put plainly: CYP inhibition, CYP3A4. The format is in vitro ADME. On the procedure: as §1
A short description of data set [4]: Plasma stability, human. The format is in vitro ADME. On the procedure: For PK analysis, 5 mg/kg of JH4 in 10% DMSO, 5% […] solution were intravenously injected and 10 mg/kg of JH4 in 10% NMP and 90% PEG400 solution were orally delivered. At pre-set time-points, blood concentration of JH4 was determined by LC-MS/MS analysis[22],[23]. Other chemicals were also tested using similar protocol. In vitro ADME studies (plasma protein binding, CYP inhibition, microsomal stability, plasma stability, and hERG inhibition) were performed by New Drug Development Center (Daegu, Korea) using standard protocols[24],[25].

Some results are limits rather than exact numbers.

CYP3A4, sequence (P08684 whole entry): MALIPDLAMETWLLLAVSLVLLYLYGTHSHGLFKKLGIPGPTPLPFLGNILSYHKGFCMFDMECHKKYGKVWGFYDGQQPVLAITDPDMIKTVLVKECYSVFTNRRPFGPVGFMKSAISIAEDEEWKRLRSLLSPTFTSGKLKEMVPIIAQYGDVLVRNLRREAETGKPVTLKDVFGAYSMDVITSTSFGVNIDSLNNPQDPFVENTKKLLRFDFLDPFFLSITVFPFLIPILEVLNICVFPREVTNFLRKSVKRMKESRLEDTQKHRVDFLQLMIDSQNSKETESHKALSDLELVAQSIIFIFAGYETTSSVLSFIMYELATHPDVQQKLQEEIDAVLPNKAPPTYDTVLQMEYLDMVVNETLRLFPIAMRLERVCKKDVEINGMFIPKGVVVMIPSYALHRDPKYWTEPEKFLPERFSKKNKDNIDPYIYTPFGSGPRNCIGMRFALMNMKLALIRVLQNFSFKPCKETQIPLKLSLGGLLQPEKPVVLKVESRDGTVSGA

As usually defined, the amount remaining is what is left of the initial amount, in per cent. `CC1(C)Oc2cc3oc(=O)ccc3cc2C[C@@H]1OC/C=C/c1ccccc1` [SLC-D011]: the “Cellular senescence (SA-β-gal staining)” value in data set [1] is “could block cellular senescence”. For the same molecule, the share remaining at 0.5 h was 21.5% in data set [2] and over 100% in data set [4] (30min). For the same molecule, in data set [3], the CYP inhibition stood at 92.5. This molecule also came in with a fraction remaining at 2 h in data set [4] (120min) of over 100%.

The values above are taken from article PMC7782499, “Progerinin, an optimized progerin-lamin A binding inhibitor, ameliorates premature senescence phenotypes of Hutchinson-Gilford progeria syndrome” (Communications Biology, 2021).
